Experimental data as given in ChEMBL document CHEMBL1122939, “N6-cycloalkyladenosines. Potent, A1-selective adenosine agonists” (J Med Chem, 1985).

Key:
[1] = Lipophilicity value was evaluated; assay type: physicochemical; settings: octanol/water
Adenosine receptor A1 = molecular target: T1, Adenosine receptor A1 (Rattus norvegicus, UniProt P25099)
T1 sequence (P25099 whole entry): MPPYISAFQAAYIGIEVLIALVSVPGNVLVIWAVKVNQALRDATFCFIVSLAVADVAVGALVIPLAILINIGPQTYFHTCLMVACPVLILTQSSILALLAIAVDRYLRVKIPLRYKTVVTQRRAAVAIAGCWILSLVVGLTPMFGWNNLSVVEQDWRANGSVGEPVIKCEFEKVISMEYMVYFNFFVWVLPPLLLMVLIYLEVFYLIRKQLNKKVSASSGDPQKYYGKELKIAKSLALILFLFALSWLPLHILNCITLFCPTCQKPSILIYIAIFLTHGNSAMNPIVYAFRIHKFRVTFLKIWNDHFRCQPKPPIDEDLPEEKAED

Adenosine A2 receptor = Adenosine A2 receptor (Rattus norvegicus, UniProt P29276+P30543)
Description: Displacement of [3H]-NECA from adenosine A2 receptor of rat striatal membrane

| Structure (SMILES) | Log k [1] | Ki (Adenosine receptor A1) | Ki (Adenosine A2 receptor) |
| --- | --- | --- | --- |
| OC[C@H]1O[C@@H](n2cnc3c(NC4CC4)ncnc32)[C@H](O)[C@@H]1O | 0.53 | 319 nM | 1240 nM |
| OC[C@H]1O[C@@H](n2cnc3c(NC4CCCCCCC4)ncnc32)[C@H](O)[C@@H]1O | 2.9 | 4.03 nM | 2450 nM |
| OC[C@H]1O[C@@H](n2cnc3c(NC4CCCCCC4)ncnc32)[C@H](O)[C@@H]1O | 2.4 | 2.79 nM | 1690 nM |
| Nc1nc(Cl)nc2c1ncn2[C@@H]1O[C@H](CO)[C@@H](O)[C@H]1O |  | 8.74 nM |  |
| OC[C@H]1O[C@@H](n2cnc3c(NC4CCCCC4)ncnc32)[C@H](O)[C@@H]1O | 1.6 |  |  |
| OC[C@H]1O[C@@H](n2cnc3c(NC4CCC4)ncnc32)[C@H](O)[C@@H]1O | 1.22 | 0.777 nM | 263 nM |
| OC[C@H]1OC(n2cnc3c(NC4CCCCCCCCC4)ncnc32)[C@H](O)[C@@H]1O (some centres undefined) | 3.62 | 100 nM | 5190 nM |
| OC[C@H]1OC(n2cnc3c(NC4CCCCCCCCCCC4)ncnc32)[C@H](O)[C@@H]1O (some centres undefined) | 4.52 | 5390 nM | 47700 nM |
| Cn1c(=O)[nH]c2c(ncn2C2O[C@H](CO)[C@@H](O)[C@H]2O)c1=N (some centres undefined) |  | 144 nM | 3250 nM |
| OC[C@H]1O[C@@H](n2cnc3c(NC4CCCC4)ncnc32)[C@H](O)[C@@H]1O [N6-CYCLOPENTYLADENOSINE] | 1.56 |  | 462 nM |
